Test results reported in patent publication US8163793B2, “Proline derivatives” (Hoffman-La Roche Inc., priority 2009, dated 2012).

What was measured:
Cathepsin S = Cathepsin S (UniProt P25774); experiment: Cathepsin enzyme inhibition assay (fluorogenic peptide substrate Z-Val-Val-Arg-AMC), Cathepsin S; assay type: biochemical, human and mouse; details: enzyme 1 nM, substrate 20 μM, pH 6.5; read-out: CatS IC50
Summary of the method: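 Compounds were combined with 1 nM human or mouse enzyme, and substrate then started the reaction. The buffer was potassium phosphate (100 mM, pH 6.5) containing EDTA-Na 5 mM, Triton X-100 0.001% and […] 5 mM.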

Cat L = Cat L (UniProt P07711); experiment: Cathepsin enzyme inhibition assay (fluorogenic peptide substrate Z-Val-Val-Arg-AMC), Cathepsin L; assay type: biochemical, human and mouse; details: enzyme 1 nM, substrate 20 μM, pH 6.5; read-out: CatL IC50
Summary of the method: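 Fluorogenic cleavage of Z-Val-Val-Arg-AMC (20 μM) by 1 nM Cat L was monitored at ex 360/em 465 nm for 20 min, the linear phase. The buffer was 100 mM potassium phosphate pH 6.5 with 5 mM EDTA and DTT. IC50 values were derived by standard methods, in μM.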

IC50 (Cathepsin S)	IC50 (Cat L)	Compound
0.25 nM	7230 nM	Cc1cc(N2C[C@H](S(=O)(=O)c3ccccc3C(F)(F)F)C[C@H]2C(=O)NC2(C#N)CC2)n(-c2ccnc3ccccc23)n1 [Example 352, (2S,4R)-1-(5-Methyl-2-quinolin-4-yl-2H-pyrazol-3-yl)-4-(2-trifluoromethyl-benzenesulfonyl)-pyrrolidine-2-carboxylic acid (1-cyano-cyclopropyl)-amide]
0.175 nM	≥ 25000 nM	N#CC1(NC(=O)C2CC(S(=O)(=O)c3ccccc3C(F)(F)F)CN2c2cccc(C(F)(F)F)c2)CC1 (centres unmarked) [Example 354, 4-(2-Trifluoromethyl-benzenesulfonyl)-1-(3-trifluoromethyl-phenyl)-pyrrolidine-2-carboxylic Acid (1-cyano-cyclopropyl)-amide]
2450 nM	≥ 25000 nM	CC(C)(C)c1ccccc1N1CC(S(=O)(=O)c2ccccc2C(F)(F)F)CC1C(=O)NC1(C#N)CC1 (centres unmarked) [Example 355, 1-(2-tert-Butyl-phenyl)-4-(2-trifluoromethyl-benzenesulfonyl)-pyrrolidine-2-carboxylic acid (1-cyano-cyclopropyl)-amide]
0.06 nM	31800 nM	CC(=O)Nc1cccc(-n2nc(C)cc2N2C[C@H](S(=O)(=O)c3ccccc3C(F)(F)F)C[C@H]2C(=O)NC2(C#N)CC2)c1 [Example 356, (2S,4R)-1-[2-(3-Acetylamino-phenyl)-5-methyl-2H-pyrazol-3-yl]-4-(2-trifluoromethyl-benzenesulfonyl)-pyrrolidine-2-carboxylic acid (1-cyano-cyclopropyl)-amide]
0.5 nM	≥ 25000 nM	N#Cc1cccc(N2CC(S(=O)(=O)c3ccccc3C(F)(F)F)CC2C(=O)NC2(C#N)CC2)c1 (centres unmarked) [Example 358, 1-(3-Cyano-phenyl)-4-(2-trifluoromethyl-benzenesulfonyl)-pyrrolidine-2-carboxylic acid (1-cyano-cyclopropyl)-amide]
0.67 nM	1050 nM	Cc1cc(N2C[C@H](S(=O)(=O)c3ccccc3Cl)C[C@H]2C(=O)NC2(C#N)CC2)n(CCc2ccccc2)n1 [Example 359, (2S,4R)-4-(2-Chloro-benzenesulfonyl)-1-(5-methyl-2-phenethyl-2H-pyrazol-3-yl)-pyrrolidine-2-carboxylic acid (1-cyano-cyclopropyl)-amide]
0.185 nM	1180 nM	N#CC1(NC(=O)[C@@H]2C[C@@H](S(=O)(=O)c3ccccc3C(F)(F)F)CN2C(=O)C2(c3ccc(Cl)cc3)CCC2)CC1 [Example 360, (2S,4R)-1-[1-(4-Chloro-phenyl)-cyclobutanecarbonyl]-4-(2-trifluoromethyl-benzenesulfonyl)-pyrrolidine-2-carboxylic acid (1-cyano-cyclopropyl)-amide]
380 nM	≥ 25000 nM	N#CC1(NC(=O)C2CC(S(=O)(=O)c3ccccc3C(F)(F)F)CN2C2CCOCC2)CC1 (centres unmarked) [Example 362, 1-(Tetrahydro-pyran-4-yl)-4-(2-trifluoromethyl-benzenesulfonyl)-pyrrolidine-2-carboxylic acid (1-cyano-cyclopropyl)-amide]
1.5 nM	10800 nM	N#CC1(NC(=O)[C@@H]2C[C@@H](S(=O)(=O)c3ccccc3C(F)(F)F)CN2c2cc(C3CC3)nn2-c2ccc(C(F)(F)F)cc2)CC1 [Example 363, (2S,4R)-1-[5-Cyclopropyl-2-(4-trifluoromethyl-phenyl)-2H-pyrazol-3-yl]-4-(2-trifluoromethyl-benzenesulfonyl)-pyrrolidine-2-carboxylic acid (1-cyano-cyclopropyl)-amide]
295 nM	≥ 25000 nM	CC(C)(C)OC(=O)N1CCC(N2CC(S(=O)(=O)c3ccccc3C(F)(F)F)CC2C(=O)NC2(C#N)CC2)CC1 (centres unmarked) [Example 364, 4-[2-(1-Cyano-cyclopropylcarbamoyl)-4-(2-trifluoromethyl-benzenesulfonyl)-pyrrolidin-1-yl]-piperidine-1-carboxylic acid tert-butyl ester]
240 nM	≥ 25000 nM	N#CC1(NC(=O)[C@@H]2C[C@@H](S(=O)(=O)c3ccc(OCC(F)(F)F)cc3Cl)CN2CC2(c3ccc(Cl)cc3)CC2)CC1 [Example 365, (2S,4R)-1-[1-(4-Chloro-phenyl)-cyclopropylmethyl]-4-[2-chloro-4-(2,2,2-trifluoro-ethoxy)-benzenesulfonyl]-pyrrolidine-2-carboxylic acid (1-cyano-cyclopropyl)-amide]
0.07 nM	26.3 nM	CN1CCN(c2ccc(S(=O)(=O)[C@@H]3C[C@@H](C(=O)NC4(C#N)CC4)N(C(=O)C4(c5ccc(Cl)nc5)CC4)C3)c(Cl)c2)CC1 [Example 369, (2S,4R)-4-[2-Chloro-4-(4-methyl-piperazin-1-yl)-benzenesulfonyl]-1-[1-(6-chloro-pyridin-3-yl)-cyclopropanecarbonyl]-pyrrolidine-2-carboxylic acid (1-cyano-cyclopropyl)-amide; Compound with Formic Acid]
0.08 nM	44.3 nM	COCCN1CCN(c2ccc(S(=O)(=O)[C@@H]3C[C@@H](C(=O)NC4(C#N)CC4)N(C(=O)C4(c5ccc(Cl)nc5)CC4)C3)c(Cl)c2)CC1 [Example 372, (2S,4R)-4-{2-Chloro-4-[4-(2-methoxy-ethyl)-piperazin-1-yl]-benzenesulfonyl}-1-[1-(6-chloro-pyridin-3-yl)-cyclopropanecarbonyl]-pyrrolidine-2-carboxylic acid (1-cyano-cyclopropyl)-amide; Compound with Formic Acid]

Continued, compound first:

Compound	IC50 (Cathepsin S)	IC50 (Cat L)
Cc1cc(N2C[C@H](S(=O)(=O)c3ccccc3Cl)C[C@H]2C(=O)NC2(C#N)CC2)n(C2CCC2)n1 [Example 353, (2S,4R)-4-(2-Chloro-benzenesulfonyl)-1-(2-cyclobutyl-5-methyl-2H-pyrazol-3-yl)-pyrrolidine-2-carboxylic acid (1-cyano-cyclopropyl)-amide]	0.99 nM	13500 nM
CC(=O)Nc1cccc(-n2nc(C)cc2N2C[C@H](S(=O)(=O)c3ccccc3C(F)(F)F)C[C@@H]2C(=O)NC2(C#N)CC2)c1 [Example 357, (2R,4R)-1-[2-(3-Acetylamino-phenyl)-5-methyl-2H-pyrazol-3-yl]-4-(2-trifluoromethyl-benzenesulfonyl)-pyrrolidine-2-carboxylic acid (1-cyano-cyclopropyl)-amide]	17.5 nM	≥ 25000 nM
N#CC1(NC(=O)[C@@H]2C[C@@H](S(=O)(=O)c3ccccc3C(F)(F)F)CN2C(=O)C2(c3ccc(Cl)nc3)CC2)CC1 [Example 361, (2S,4R)-1-[1-(6-Chloro-pyridin-3-yl)-cyclopropanecarbonyl]-4-(2-trifluoromethyl-benzenesulfonyl)-pyrrolidine-2-carboxylic acid (1-cyano-cyclopropyl)-amide]	0.02 nM	995 nM
N#CC1(NC(=O)[C@@H]2C[C@@H](S(=O)(=O)c3ccc(OCC(F)(F)F)cc3C(F)(F)F)CN2c2nnc(C(F)(F)F)s2)CC1 [Example 366, (2S,4R)-4-[4-(2,2,2-Trifluoro-ethoxy)-2-trifluoromethyl-benzenesulfonyl]-1-(5-trifluoromethyl-[1,3,4]thiadiazol-2-yl)-pyrrolidine-2-carboxylic acid (1-cyano-cyclopropyl)-amide]	0.327 nM	≥ 25000 nM
N#CC1(NC(=O)C2CC(S(=O)(=O)c3ccccc3C(F)(F)F)CN2c2cccc(OC(F)(F)F)c2)CC1 (centres unmarked) [Example 367, 1-(3-Trifluoromethoxy-phenyl)-4-(2-trifluoromethyl-benzenesulfonyl)-pyrrolidine-2-carboxylic acid (1-cyano-cyclopropyl)-amide]	1.57 nM	≥ 25000 nM
N#CC1(NC(=O)[C@@H]2C[C@@H](S(=O)(=O)c3ccc(F)cc3Cl)CN2C(=O)C2(c3ccc(Cl)nc3)CC2)CC1 [Example 368, (2S,4R)-4-(2-Chloro-4-fluoro-benzenesulfonyl)-1-[1-(6-chloro-pyridin-3-yl)-cyclopropanecarbonyl]-pyrrolidine-2-carboxylic acid (1-cyano-cyclopropyl)-amide]	0.21 nM	267 nM
CC(C)N1CCN(c2ccc(S(=O)(=O)[C@@H]3C[C@@H](C(=O)NC4(C#N)CC4)N(C(=O)C4(c5ccc(Cl)nc5)CC4)C3)c(Cl)c2)CC1 [Example 370, (2S,4R)-4-[2-Chloro-4-(4-isopropyl-piperazin-1-yl)-benzenesulfonyl]-1-[1-(6-chloro-pyridin-3-yl)-cyclopropanecarbonyl]-pyrrolidine-2-carboxylic acid (1-cyano-cyclopropyl)-amide; Compound with Formic Acid]	0.07 nM	21.7 nM
CC(C)(C)N1CCN(c2ccc(S(=O)(=O)[C@@H]3C[C@@H](C(=O)NC4(C#N)CC4)N(C(=O)C4(c5ccc(Cl)nc5)CC4)C3)c(Cl)c2)CC1 [Example 371, (2S,4R)-4-[4-(4-tert-Butyl-piperazin-1-yl)-2-chloro-benzenesulfonyl]-1-[1-(6-chloro-pyridin-3-yl)-cyclopropanecarbonyl]-pyrrolidine-2-carboxylic acid (1-cyano-cyclopropyl)-amide; Compound with Formic Acid]	0.08 nM	26.3 nM
N#CC1(NC(=O)[C@@H]2C[C@@H](S(=O)(=O)c3ccc(N4CCN5CCC[C@H]5C4)cc3Cl)CN2C(=O)C2(c3ccc(Cl)nc3)CC2)CC1 [Example 373, (2S,4R)-4-((S)-2-Chloro-4-hexahydro-pyrrolo[1,2-a]pyrazin-2-yl-benzenesulfonyl)-1-[1-(6-chloro-pyridin-3-yl)-cyclopropanecarbonyl]-pyrrolidine-2-carboxylic acid (1-cyano-cyclopropyl)-amide; Compound with Formic Acid]	0.08 nM	42.7 nM
